One data set concerns BBB. As to the kind of experiment: BBB permeation experiment of FITC dextran using rat (Example 6). Conditions: ultrasound exposure using nano-bubble water of Reference Example 1. As for the experimental part: The administration solution (0.4 mL) was injected into the rat tail vein at 1 mL/min using an injection tube and a needle of appropriate sizes (both sterilized disposable products). Using an ultrasound gene transfer apparatus (Sonitron GTS) manufactured by Nepa Gene Co., Ltd., exposure was performed for 60 sec at frequency 1 MHz and ultrasound intensity 2 W/cm^2 (n=3).
• fluorescence wavelength: 520 nm • excitation wavelength: 494 nm • flash number: 6 times

For data set [1], the system named is BBB Kit™ (RBT-24H). As to the kind of experiment: BBB permeation experiment of fluorescein using BBB Kit, two nano-bubble waters (Example 4). It counts as in vitro ADME. Particulars: culture medium A (Reference Example 1) and culture medium B (Reference Example 2); ultrasound exposure at not less than 100 mW/cm^2. As for the experimental part:
(§1) In addition, the fluorescein stock solution and the nano-bubble water prepared in Reference Example 2 were diluted with D-PBS such that the fluorescein concentration was 1 μM and nano-bubble density was 2×10^8 bubbles to prepare a culture solution B (volume: 500 μL) (n=2).
(§2) The permeability coefficient (Papp) was calculated from the measured fluorescein concentration, and the intracerebral transferability of fluorescein (BBB permeability) was calculated.

Experiment in data set [2]: as above
Particulars: rat, 2 hr, read-out: permeability coefficient (Papp). The data set is classed as in vitro ADME. As for the experimental part: as §1, §2

The test system of data set [3] is BBB Kit™ (RBT-24H). Briefly: BBB permeation experiment of fluorescein using BBB Kit (Example 1). The data set is classed as in vitro ADME. Conditions: nano-bubble water (PS80); ultrasound exposure at not less than 100 mW/cm^2. As for the experimental part: (§3) Using this D-PBS, fluorescein (fluorescein sodium manufactured by Wako Pure Chemical Industries, Code No. 213-00092) was dissolved to prepare a fluorescein stock solution.
as §2
(§4) • fluorescence wavelength: 520 nm • excitation wavelength: 480 nm • flash number: 6 times

Experiment in data set [4]: as above
The data set is classed as in vitro ADME. Conditions: rat, 2 hr, read-out: permeability coefficient (Papp). As for the experimental part: as §3, §2, §4

A further data set deals with brain tissue. Conditions: ddY mice; nano-bubbles (about 400 nm) and 5-FU in combination; brain tissue exposed to ultrasound; cited from earlier work.
[5] abbreviates: control: fluorescein 1 μM in D-PBS without nano-bubble water.

As for “fluorescein isothiocyanate dextran [FITC dextran]”, the “brain transferability compared with the control” value with BBB is “promotion of brain transferability”.

Consider `O=C1OC2(c3ccc(O)cc3Oc3cc(O)ccc32)c2ccccc21` [fluorescein, fluorescein sodium], for which the “BBB permeability compared with the control” value with BBB Kit™ (RBT-24H) [1] and in the data set with BBB Kit™ (RBT-24H) [3] was “clear promotion of BBB permeability” each time. Also, the Papp at 2 h, 1 μM is 1.79 ×10⁻⁶ cm/s in data set [2] (setting [5]); 11.1 ×10⁻⁶ cm/s in data set [2] (culture medium A (Reference Example 1 nano-bubble water, 2×10^8 bubbles), fluorescein 1 μM, ultrasound 100 mW/cm^2, 1 MHz, 10 sec); 0.574 ×10⁻⁶ cm/s in data set [4] (setting [5]); 11.2 ×10⁻⁶ cm/s in data set [4] (fluorescein 1 μM + nano-bubble water (PS80) 2×10^8 bubbles, ultrasound 100 mW/cm^2, 1 MHz, 10 sec); 10.6 ×10⁻⁶ cm/s in data set [4] (fluorescein 1 μM + nano-bubble water (PS80) 2×10^8 bubbles, ultrasound 250 mW/cm^2, 1 MHz, 10 sec); 12.7 ×10⁻⁶ cm/s in data set [4] (fluorescein 1 μM + nano-bubble water (PS80) 2×10^8 bubbles, ultrasound 500 mW/cm^2, 1 MHz, 10 sec).

For the molecule `O=c1[nH]cc(F)c(=O)[nH]1` [5-FU, fluorouracil], the “duration for which transfer into the brain was observed” value with brain tissue is listed as “at least 24 hr”.

(Values after patent publication US12178981B2, “Drug administration method” (Takeda Pharmaceutical Company Limited, priority 2017, dated 2024).)
